{
  "source": "paper PMC2362731",
  "about": "“Phase I study of Carzelesin (U-80,244) given (4-weekly) by intravenous bolus schedule” (British Journal of Cancer, 1999)",
  "test": "Plasma pharmacokinetics of Carzelesin and metabolites by HPLC, first course",
  "type": "in vivo, human",
  "description": "Carzelesin is a cyclopropylpyrroloindole analogue which acts as a DNA-sequence-specific alkylating agent. In this phase I study, Carzelesin was given as a 4-weekly 10 min IV infusion to 51 patients with advanced solid tumours. Patients received a median of two courses (range 1–5) at one of nine dose levels: 24, 48, 96, 130, 150, 170, 210, 250 and 300 μg m^−2. According to NCI-CTC criteria, non-haematological toxicities (grade 1/2) included fever, nausea and vomiting, mucositis and anorexia, none of which was clearly dose related. The dose-limiting toxicity was haematological and consisted mainly of neutropenia and to a lesser extent thrombocytopenia. From the dose level 150 μg m^−2, the haematological toxicity (particularly thrombocytopenia) was delayed in onset, prolonged and cumulative in some patients. In several courses, double WBC nadirs occurred. The maximum tolerated dose for a single course was 300 μg m^−2. From the dose level 170 μg m^−2, the intended dose intensity could not be delivered to most patients receiving > 2 courses owing to cumulative haematological toxicity. The dose level with the best dose intensity for multiple courses was 150 μg m^−2. The pharmacokinetics of Carzelesin and its metabolites (U-76,073; U-76,074) have been established in 31 patients during the first course of treatment using a HPLC method. […] The concentration of U-76,074 (active metabolite) extended above the lower limit of quantitation (1 ng ml^−1) for short periods of time and only at the higher dose levels. There was no relationship between neutropenia and the AUC of the prodrug Carzelesin, but the presence of detectable plasma levels of the active metabolite U-76,074 was usually associated with a substantial decrease in ANC values. © 1999 Cancer Research Campaign\nCarzelesin (U-80,244, Figure 1A) is a cyclopropylpyrroloindole (CPI) prodrug analogue of CC-1065. […] CPI drugs are a class of compounds with unique DNA interactive properties. These agents fit into the minor groove region of DNA, and the CPI function in the molecule mediates a covalent binding to the N3 position of adenine in A-T rich regions, thus forming DNA adducts in a sequence selective fashion (Hurley et al, 1984; Reynolds et al, 1985). Three new CPIs have now been developed. […] Bizelesin differs from the classical CPI drugs in that it contains two chloromethyl functions, which are both converted (via intramolecular rearrangements) to the CPI alkyl- ating species that interact with DNA. Consequently, this agent is capable of forming DNA interstrand cross-links (Lee et al, 1991). […] Therefore, efforts were directed to modu- late the alkylation rate by the preparation of CPI prodrugs that would require chemical or enzymatic conversion. The activation of Carzelesin is a two-step reaction with hydrolysis of the phenyl- urethane substituent to form the intermediate compound U-76,073, followed by ring closure to form the active product U-76,074 (Figure 1B). […] This higher efficacy may be related to the pharmacologic features of the compound. […] Phase I study of Carzelesin (U-80,244) given (4-weekly) by intravenous bolus schedule A Awada1, CJA Punt2, MJ Piccart1, O Van Tellingen3, L Van Manen2, J Kerger1, Y Groot4, J Wanders4, J Verweij5 and DJTh Wagener2 1Institut Jules Bordet, Bd de Waterloo 125, 1000 Brussels, Belgium; 2University Hospital, Geert Grooteplein 8, Box 9101, 6500 HB Nijmegen, The Netherlands; 3The Netherlands Cancer Institute (Antoni van Leeuwenhoek Huis), Plesmanlaan 121, 1066 CX Amsterdam, The Netherlands; 4European Organization for Research and Treatment of Cancer - New Drug Development Office, PO Box 7057, Amsterdam, The Netherlands; 5Rotterdam Cancer Institute, Groene Hilledijk 301, 3075 EA Rotterdam, The Netherlands; on behalf of the EORTC Early Clinical Studies Group and EORTC NDDO Summary Carzelesin is a cyclopropylpyrroloindole analogue which acts as a DNA-sequence-specific alkylating agent. […]",
  "data": [
    {"smiles": "CCN(CC)c1ccc2cc(C(=O)Nc3ccc4[nH]c(C(=O)N5C[C@@H](CCl)c6c5cc(OC(=O)Nc5ccccc5)c5[nH]cc(C)c65)cc4c3)oc2c1", "note": "[Carzelesin]", "values": [
      {"measurement": "time after drug administration until plasma level dropped below 1 ng ml-1", "setting": "dose level 24", "value": "≤ 1", "unit": "h"},
      {"measurement": "peak plasma concentration", "setting": "dose level 24, also reported in Van Tellingen et al, 1998", "value": "about 10 ng ml-1"},
      {"measurement": "mean peak plasma level", "setting": "highest dose level 300", "value": 63, "unit": "ng/mL"},
      {"measurement": "pharmacokinetic behaviour (dose vs plasma AUC)", "setting": "in vivo", "value": "linear pharmacokinetics"}
    ]}
  ]
}
